Reference: patent US9278071B2, “Organic compound nano-powder, method for producing the same and suspension” (Activus Pharma Co., Ltd., priority 2012, dated 2016)

Assay: Particle diameter distribution by dynamic light scattering photon correlation method (Delsa Nano)
Assay type: physicochemical
Settings: starting organic compound powder before mixing/milling
Text: The term “average particle diameter” used in present specification means a mathematical average diameter (here, defined as the Dav value) in the particle diameter distribution as measured by a dynamic light scattering photon correlation method. The term “50%-diameter” (defined as median diameter or the D50 value) means a certain particle diameter when amount of a larger side becomes equal to amount of a smaller side of the particle diameters divided into two a powder from the certain particle diameter. The term “90%-diameter” (D90 value) means the particle diameter of the particle at the position of 90% when counted from the smallest size zero (minimum) to 100% (maximum) of the particle diameter in the particle diameter distribution as measured by the above-mentioned measurement method. The term “10%-diameter” (D10 value) means the particle diameter of the particle at the position of 10% when counted from the smallest size zero (minimum) to 100% (maximum) of the particle diameter in the particle diameter distribution as measured by the above-mentioned measurement method. […]

| Compound | Particle diameter distribution, D10, before milling | Particle diameter distribution, D50, before milling | Particle diameter distribution, D90, before milling | Particle diameter distribution, Dav (average particle diameter), before milling |
| --- | --- | --- | --- | --- |
| CC[C@H]1OC(=O)[C@H](C)[C@@H](O[C@H]2C[C@@](C)(OC)[C@@H](O)[C@H](C)O2)[C@H](C)[C@@H](O[C@@H]2O[C@H](C)C[C@H](N(C)C)[C@H]2O)[C@](C)(OC)C[C@@H](C)C(=O)[C@H](C)[C@@H](O)[C@]1(C)O [clarithromycin powder, clarithromycin] | 2277 nm | 6872 nm | 22850 nm | 10160 nm |
| CC(=O)[C@@]1(O)CC[C@H]2[C@@H]3C[C@H](C)C4=CC(=O)C=C[C@]4(C)[C@@]3(F)[C@@H](O)C[C@@]21C [fluorometholone powder, fluorometholone] | 1389 nm | 2636 nm | 5709 nm | 3148 nm |
| COc1cc(/C=C/C(=O)CC(=O)/C=C/c2ccc(O)c(OC)c2)ccc1O [synthetic curcumin powder, curcumin] | 4422 nm | 15070 nm | 33850 nm | 17270 nm |

Assay: Particle size of the granular carbohydrate compounds used
Assay type: physicochemical
Settings: granular carbohydrate compound as used
Text: The term “Dav” means an average particle diameter (Dav). In the table, the term “D10” means the particle diameter (D10 value) of the particle at the position of 10% when counted from the smallest size zero (minimum) to 100% (maximum) of the particle diameter in a particle diameter distribution. The term “D50” means a certain particle diameter (D50 value) when amount of a larger side becomes equal to amount of a smaller side of the particle diameters divided into two a powder from the certain particle diameter. The term “D90” means the particle diameter (D90 value) of the particle at the position of 90% when counted from the smallest size zero (minimum) to 100% (maximum) of the particle diameter in the particle diameter distribution. The same definitions shall apply to following tables.

| Compound | Particle Size D10 | Particle Size D50 | Particle Size D90 | Particle Size Dav |
| --- | --- | --- | --- | --- |
| O=C[C@H](O)[C@@H](O)[C@H](O[C@@H]1O[C@H](CO)[C@@H](O)[C@H](O)[C@H]1O)[C@H](O)CO [Cellobiose, cellobiose] | 7 μm | 38 μm | 76 μm | 41 μm |
| OC[C@@H](O)[C@@H](O)CO [Erythritol, erythritol] | 63 μm | 138 μm | 237 μm | 147 μm |
| O=C(CO)[C@@H](O)[C@H](O)[C@H](O)CO [Fructose, fructose] | 158 μm | 311 μm | 566 μm | 339 μm |
| O[C@H]1[C@H](O)[C@@H](O)[C@H](O)[C@@H](O)[C@H]1O [Inositol, inositol] | 116 μm | 247 μm | 496 μm | 280 μm |
| O.OC[C@H]1O[C@@H](O[C@H]2[C@H](O)[C@@H](O)C(O)O[C@@H]2CO)[C@H](O)[C@@H](O)[C@H]1O (stereo partly shown) [Lactose monohydrate, lactose monohydrate] | 3 μm | 20 μm |  | 45 μm |
| OC[C@@H](O)[C@@H](O[C@H]1O[C@H](CO)[C@@H](O)[C@H](O)[C@H]1O)[C@H](O)[C@@H](O)CO [Maltitol, maltitol] | 7 μm | 30 μm | 64 μm | 33 μm |
| OC[C@@H](O)[C@@H](O)[C@H](O)[C@H](O)CO [Mannitol, D-(−)-mannitol] | 24 μm | 66 μm | 144 μm | 79 μm |
| OC[C@@H](O)[C@@H](O)[C@H](O)[C@@H](O)CO [Sorbitol, sorbitol] | 75 μm | 154 μm | 249 μm | 159 μm |
| OC[C@H]1O[C@H](O[C@H]2O[C@H](CO)[C@@H](O)[C@H](O)[C@H]2O)[C@H](O)[C@@H](O)[C@@H]1O [Trehalose, trehalose] | 7 μm | 20 μm | 50 μm | 25 μm |
| OC[C@@H](O)[C@H](O)[C@@H](O)CO [Xylitol, xylitol] | 383 μm | 615 μm | 912 μm | 631 μm |
| dextrin | 16 μm | 38 μm | 63 μm | 38 μm |
